Measurements as given in PubChem BioAssay (NCI).
Several values for one entry are separate records, joined by “and”; a condition that tells them apart may be missing. Equal values may be shown once.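 Where inhibition never reached the appropriate level, the endpoint shown equals the highest concentration tested. Otherwise, values were interpolated linearly from a five-concentration, 48-hour dose response in 96-well plates. Here, GI50 denotes the concentration required for 50% inhibition of growth. TGI marks complete inhibition of growth.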

Experiments:
Assay in all cases: growth of human tumour cells (NCI), 48 h
[1] = test system: OVCAR-3 ovarian
[2] = test system: SK-MEL-2 melanoma
[3] = test system: KM20L2 colon
[4] = test system: NCI-H522 lung
[5] = test system: NCI-H226 lung
[6] = test system: RPMI-8226 leukemia
[7] = test system: MALME-3M melanoma
[8] = test system: COLO 205 colon
[9] = test system: U251 CNS
[10] = test system: SNB-75 CNS
[11] = test system: XF 498 CNS
[12] = test system: SF-539 CNS
[13] = test system: UACC-257 melanoma
[14] = test system: K-562 leukemia
[15] = test system: LOX IMVI melanoma
[16] = test system: OVCAR-8 ovarian
[17] = test system: HCT-15 colon
[18] = test system: SK-MEL-28 melanoma
[19] = test system: HCT-116 colon
[20] = test system: CCRF-CEM leukemia
[21] = test system: EKVX NSCLC
[22] = test system: A549 NSCLC
[23] = test system: ACHN renal
[24] = test system: TK-10 renal
[25] = test system: UACC-62 melanoma
[26] = test system: SNB-19 CNS
[27] = test system: SK-MEL-5 melanoma
[28] = test system: HOP-62 NSCLC
[29] = test system: 786-0 renal
[30] = test system: SW-620 colon
[31] = test system: SF-268 CNS
[32] = test system: SF-295 CNS
[33] = test system: LXFL 529 NSCLC
[34] = test system: HOP-18 NSCLC
[35] = test system: CAKI-1 renal
[36] = test system: SN12C renal
[37] = test system: NCI-H460 lung
[38] = test system: MOLT-4 leukemia
[39] = test system: SK-OV-3 ovarian
[40] = test system: OVCAR-5 ovarian
[41] = test system: HCC-2998 colon
[42] = test system: SNB-78 CNS
[43] = test system: RXF 393 renal
[44] = test system: IGROV1 ovarian
[45] = test system: DMS 273 small cell lung
[46] = test system: HT29 colon
[47] = test system: NCI-H23 lung
[48] = test system: RXF-631 renal
[49] = test system: M14 melanoma
[50] = test system: OVCAR-4 ovarian
[51] = test system: UO-31 renal
[52] = test system: KM12 colon
[53] = test system: HOP-92 NSCLC
[54] = test system: A498 renal
[55] = test system: MDA-MB-435
[56] = test system: HL-60(TB) leukemia
[57] = test system: SR leukemia
[58] = test system: DLD-1 colon
[59] = test system: DMS 114 small cell lung
[60] = test system: M19-MEL melanoma

O=C(O)c1ccccc1NS(=O)(=O)c1ccc([N+](=O)[O-])cc1
TGI [1]: > 100 µM
TGI [2]: > 100 µM
TGI [3]: > 100 µM
TGI [4]: > 100 µM
TGI [5]: > 100 µM
TGI [6]: > 100 µM
TGI [7]: > 100 µM
TGI [8]: > 100 µM
TGI [9]: > 100 µM
TGI [10]: > 100 µM
TGI [11]: > 100 µM
TGI [12]: > 100 µM
TGI [13]: > 100 µM
TGI [14]: > 100 µM
TGI [15]: > 100 µM
TGI [16]: > 100 µM
TGI [17]: > 100 µM
TGI [18]: > 100 µM
TGI [19]: > 100 µM
TGI [20]: > 100 µM
TGI [21]: > 100 µM
TGI [22]: > 100 µM
TGI [23]: > 100 µM
TGI [24]: > 100 µM
TGI [25]: > 100 µM
TGI [26]: > 100 µM
TGI [27]: > 100 µM
TGI [28]: > 100 µM
TGI [29]: > 100 µM
TGI [30]: > 100 µM
TGI [31]: > 100 µM
TGI [32]: > 100 µM
TGI [33]: > 100 µM
TGI [34]: > 100 µM
TGI [35]: > 100 µM
TGI [36]: > 100 µM
TGI [37]: > 100 µM
TGI [38]: > 100 µM
TGI [39]: > 100 µM
TGI [40]: > 100 µM
TGI [41]: > 100 µM
TGI [42]: > 100 µM
TGI [43]: > 100 µM
TGI [44]: > 100 µM
TGI [45]: > 100 µM
TGI [46]: > 100 µM
TGI [47]: > 100 µM
TGI [48]: > 100 µM
TGI [49]: > 100 µM
TGI [50]: > 100 µM
TGI [51]: > 100 µM
TGI [52]: > 100 µM

CC(C)S(=O)(=O)ON1C(=O)c2ccc(N(C)C)cc2C1=O
TGI [1]: 24.5 µM
GI50 [2]: 19.1 µM
TGI [2]: 45 µM
TGI [3]: 41.2 µM
GI50 [4]: 1.79 µM
TGI [4]: 4.42 µM and 3.85 µM
GI50 [53]: 28 µM
TGI [53]: 54.5 µM
TGI [5]: > 60.9 µM
GI50 [6]: 1.71 µM
TGI [6]: 6.46 µM and 9.12 µM
GI50 [7]: 20.5 µM
TGI [7]: 8.68 µM and 53.5 µM
GI50 [8]: 8.36 µM
TGI [8]: 21.5 µM
TGI [9]: 30.3 µM
TGI [54]: > 60.7 µM
GI50 [10]: 8.66 µM
TGI [10]: 39.3 µM
TGI [11]: 32.3 µM
TGI [12]: 37.4 µM
TGI [13]: 38.8 µM
GI50 [14]: 2.48 µM
TGI [14]: 21.3 µM
GI50 [15]: 9.69 µM
TGI [15]: 29.6 µM
GI50 [16]: 5.05 µM
TGI [16]: 6.47 µM and 63.7 µM
TGI [17]: 32.3 µM
TGI [18]: 56.1 µM
GI50 [19]: 2.44 µM
TGI [19]: 9.13 µM and 30.8 µM
GI50 [20]: 0.29 µM
TGI [20]: 1.06 µM and 9.21 µM
TGI [21]: 41.7 µM
TGI [55]: 4.75 µM
TGI [22]: 58 µM
TGI [23]: 33.7 µM
TGI [24]: 37.1 µM
TGI [25]: 33.7 µM
TGI [26]: > 100 µM
GI50 [27]: 15.3 µM
TGI [27]: 31.4 µM
TGI [28]: > 63.4 µM
GI50 [29]: 19.5 µM
TGI [29]: 42 µM
GI50 [30]: 4.01 µM
TGI [30]: 38.6 µM
TGI [31]: 66.8 µM
TGI [32]: > 67.1 µM
TGI [33]: 25.1 µM
TGI [34]: 27.3 µM
GI50 [35]: 13.6 µM
TGI [35]: 28.7 µM
TGI [36]: 34.3 µM
TGI [37]: 37.3 µM
GI50 [38]: 0.4 µM
TGI [38]: 4.57 µM and > 22.8 µM
TGI [39]: > 78.6 µM
TGI [40]: 42 µM
TGI [41]: 18 µM
TGI [42]: > 100 µM
GI50 [43]: 5.34 µM
TGI [43]: 17.9 µM
GI50 [56]: 0.417 µM
TGI [44]: 43 µM
TGI [45]: 35.6 µM
GI50 [57]: 0.752 µM
TGI [57]: 3.18 µM and 9.78 µM
TGI [46]: > 58 µM
TGI [47]: > 59.2 µM
TGI [48]: 19.7 µM
TGI [49]: 40 µM
GI50 [50]: 6.01 µM
TGI [50]: 33.7 µM
TGI [51]: 34.5 µM
TGI [52]: 46.4 µM

CC1C=CC(O)[C@]2(CO)CC3(CCC12)OCCO3 (stereo partly drawn)
TGI [1]: > 100 µM
TGI [2]: > 100 µM
TGI [3]: > 100 µM
TGI [4]: > 100 µM
TGI [53]: > 100 µM
TGI [5]: > 100 µM
TGI [7]: > 100 µM
TGI [9]: > 100 µM
TGI [54]: > 100 µM
TGI [58]: > 100 µM
TGI [10]: > 100 µM
TGI [11]: > 100 µM
TGI [12]: > 100 µM
TGI [13]: > 100 µM
TGI [14]: > 100 µM
TGI [16]: > 100 µM
TGI [18]: > 100 µM
TGI [19]: > 100 µM
TGI [20]: > 100 µM
TGI [21]: > 100 µM
TGI [22]: > 100 µM
TGI [23]: > 100 µM
TGI [24]: > 100 µM
TGI [25]: > 100 µM
TGI [26]: > 100 µM
TGI [27]: > 100 µM
TGI [28]: > 100 µM
TGI [29]: > 100 µM
TGI [30]: > 100 µM
TGI [31]: > 100 µM
TGI [59]: > 100 µM
TGI [32]: > 100 µM
TGI [33]: > 100 µM
TGI [35]: > 100 µM
TGI [36]: > 100 µM
TGI [37]: > 100 µM
TGI [38]: > 100 µM
TGI [39]: > 100 µM
TGI [40]: > 100 µM
TGI [41]: > 100 µM
TGI [42]: > 100 µM
TGI [43]: > 100 µM
TGI [60]: > 100 µM
TGI [56]: > 100 µM
TGI [44]: > 100 µM
TGI [45]: > 100 µM
TGI [57]: > 100 µM
TGI [46]: > 100 µM
TGI [47]: > 100 µM
TGI [48]: > 100 µM
TGI [49]: > 100 µM
TGI [50]: > 100 µM
TGI [51]: > 100 µM
TGI [52]: > 100 µM
